From patent US10159640B2, “Prebiotic oral care compositions containing amino acids” (COLGATE-PALMOLIVE COMPANY, priority 2013, dated 2018)

Legend:
Assay type in all cases: cell-based
Capnocytophaga sputigena [1] = assay: Metabolic activity, Biolog phenotype microarray; conditions: control without dipeptide = 1
Outline: (§1)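 Each species, grown 48 h anaerobically on blood agar, was suspended in IF-0 fluid with tetrazolium Redox Dye D, succinate and ferric citrate, then dispensed onto dipeptide-preloaded plates. Incubated anaerobically at 37° C; OD 492 nm read at 24 and 48 h versus no-dipeptide controls; mean of three biological replicates.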

Fusobacterium nucleatum = assay: Metabolic activity, Biolog phenotype microarray; conditions: control without dipeptide = 1
Outline: as §1

Porphyromonas gingivalis [2] = assay: Metabolic activity, Biolog phenotype microarray; conditions: control without dipeptide = 1
Outline: as §1

Streptococcus gordonii [3] = assay: Metabolic activity, Biolog phenotype microarray; conditions: control without dipeptide = 1
Outline: as §1

Streptococcus sanguinis = assay: Metabolic activity, Biolog phenotype microarray; conditions: control without dipeptide = 1
Outline: as §1

Actinomyces naeslundii = assay: Extent of growth, growth curves in BHI; conditions: control = 1
Description: (§2) The extent of growth of the tested bacteria in response to selected compounds (Met-Pro, Phe-Glu) was investigated by setting up growth curves in a nutritionally rich medium (brain heart infusion broth (BHI), Oxoid), over 48 hours. Late exponential growth phase liquid cultures were prepared by transferring the respective bacterium from blood agar plates to BHI and overnight incubation at 37° C. in an anaerobic atmosphere for A. viscosus, V. parvula, F. nucleatum, P. gingivalis, P. intermedia, T. forsythia, A. naeslundii, and C. sputigena, and in a 5% CO2 environment for S. salivarius, S. sanguinis, S. mitis, A. actinomycetemcomitans, S. mutans, S. sobrinus and S. gordonii. Overnight cultures were transferred to BHI and adjusted to a concentration of 1×10^7 CFU/ml (colony forming units per ml) by measuring the optical density at 600 nm (OD600) (BioRad SmartSpec 3000). For each strain, 200 μl of the bacterial suspension was added to a 96-well plate containing 20 μl of the respective di-peptides. Final concentrations of the di-peptides were set to 5, 10, 20 and 25 μmol/ml. […] Plates were incubated as previously described.
(§3) For each combination of bacterium/dipeptide, and for each of their respective controls (i.e. the particular bacterium in the nutritionally rich medium with no dipeptide), the optical density was measured at 630 nm (OD630) at 0 h, 24 h and 48 h (Thermo Scientific Multiskan Ascent). Additionally, the OD630 for combinations of bacterium/dipeptide grown in a 5% CO2 environment were also measured every hour between 0 h and 9 h.
(§4) The experiment was carried out on three different days (thus providing 3 biological replicas) and on each day the experiment was carried out in quadruple (thus providing 4 technical replicas) for each combination of bacterium with dipeptide and for each control. For each day and for each combination, the average (mean) of the values obtained (as detailed above) for the four technical replicas was calculated to provide a single value for each combination on each day. The values shown in Tables 5 to 6, below, are the average (mean) of the three single values obtained for each combination of bacterium with dipeptide.

Actinomyces viscosus = assay: Extent of growth, growth curves in BHI; conditions: control = 1
Description: as §2, §3, §4

Capnocytophaga sputigena [4] = assay: Extent of growth, growth curves in BHI; conditions: control = 1
Description: as §2, §3, §4

Porphyromonas gingivalis [5] = assay: Extent of growth, growth curves in BHI; conditions: control = 1
Description: as §2, §3, §4

Streptococcus gordonii [6] = assay: Extent of growth, growth curves in BHI; conditions: control = 1
Description: as §2, §3, §4

Row | Substance | metabolic activity: OD 492 nm divided by OD of control (Capnocytophaga sputigena [1]; 24 hrs) | metabolic activity: OD 492 nm divided by OD of control (Capnocytophaga sputigena [1]; 48 hrs) | metabolic activity: OD 492 nm divided by OD of control (Fusobacterium nucleatum; 24 hrs) | metabolic activity: OD 492 nm divided by OD of control (Fusobacterium nucleatum; 48 hrs) | metabolic activity: OD 492 nm divided by OD of control (Porphyromonas gingivalis [2]; 24 hrs) | metabolic activity: OD 492 nm divided by OD of control (Porphyromonas gingivalis [2]; 48 hrs) | metabolic activity: OD 492 nm divided by OD of control (Streptococcus gordonii [3]; 24 hrs) | metabolic activity: OD 492 nm divided by OD of control (Streptococcus gordonii [3]; 48 hrs) | metabolic activity: OD 492 nm divided by OD of control (Streptococcus sanguinis; 24 hrs) | metabolic activity: OD 492 nm divided by OD of control (Streptococcus sanguinis; 48 hrs) | extent of growth: maximal OD630 over 48 hr divided by maximal OD of control (Actinomyces naeslundii; 5 μmol/ml) | extent of growth: maximal OD630 over 48 hr divided by maximal OD of control (Actinomyces naeslundii; 10 μmol/ml) | extent of growth: maximal OD630 over 48 hr divided by maximal OD of control (Actinomyces naeslundii; 20 μmol/ml) | extent of growth: maximal OD630 over 48 hr divided by maximal OD of control (Actinomyces naeslundii; 25 μmol/ml) | extent of growth: maximal OD630 over 48 hr divided by maximal OD of control (Actinomyces viscosus; 5 μmol/ml) | extent of growth: maximal OD630 over 48 hr divided by maximal OD of control (Actinomyces viscosus; 10 μmol/ml) | extent of growth: maximal OD630 over 48 hr divided by maximal OD of control (Actinomyces viscosus; 20 μmol/ml) | extent of growth: maximal OD630 over 48 hr divided by maximal OD of control (Actinomyces viscosus; 25 μmol/ml) | extent of growth: maximal OD630 over 48 hr divided by maximal OD of control (Capnocytophaga sputigena [4]; 5 μmol/ml) | extent of growth: maximal OD630 over 48 hr divided by maximal OD of control (Capnocytophaga sputigena [4]; 10 μmol/ml) | other results
1 | Phe-Glu | 2.1428 | 1.7139 | 0.9451 | 0.9112 | 0.9806 | 0.9029 | 0.8472 | 0.9890 | 1.0204 | 1.0208 | 0.7791 | 0.4962 | 0.1648 | 0.1653 | 0.5112 | 0.3845 | 0.1598 | 0.1563 | 0.9921 | 0.9872 | extent of growth: maximal OD630 over 48 hr divided by maximal OD of control (Capnocytophaga sputigena [4]; 20 μmol/ml): 1.0801; extent of growth: maximal OD630 over 48 hr divided by maximal OD of control (Capnocytophaga sputigena [4]; 25 μmol/ml): 1.1804; extent of growth: maximal OD630 over 48 hr divided by maximal OD of control (Porphyromonas gingivalis [5]; 5 μmol/ml): 0.8526; extent of growth: maximal OD630 over 48 hr divided by maximal OD of control (Porphyromonas gingivalis [5]; 10 μmol/ml): 0.9810; extent of growth: maximal OD630 over 48 hr divided by maximal OD of control (Porphyromonas gingivalis [5]; 20 μmol/ml): 0.4181; extent of growth: maximal OD630 over 48 hr divided by maximal OD of control (Porphyromonas gingivalis [5]; 25 μmol/ml): 0.4208; extent of growth: maximal OD630 over 48 hr divided by maximal OD of control (Streptococcus gordonii [6]; 5 μmol/ml): 0.9682; extent of growth: maximal OD630 over 48 hr divided by maximal OD of control (Streptococcus gordonii [6]; 10 μmol/ml): 0.8613; extent of growth: maximal OD630 over 48 hr divided by maximal OD of control (Streptococcus gordonii [6]; 20 μmol/ml): 0.3992; extent of growth: maximal OD630 over 48 hr divided by maximal OD of control (Streptococcus gordonii [6]; 25 μmol/ml): 0.2908
2 | Met-Pro | 2.5077 | 1.8376 | 0.8752 | 0.8113 | 1.0029 | 1.0774 | 1.0870 | 1.0447 | 0.8599 | 0.8295 | 0.8420 | 0.8131 | 0.5466 | 0.3360 | 0.4873 | 0.4102 | 0.3154 | 0.2498 | 0.9618 | 3.5579 | extent of growth: maximal OD630 over 48 hr divided by maximal OD of control (Capnocytophaga sputigena [4]; 20 μmol/ml): 2.9796; extent of growth: maximal OD630 over 48 hr divided by maximal OD of control (Capnocytophaga sputigena [4]; 25 μmol/ml): 0.9701; extent of growth: maximal OD630 over 48 hr divided by maximal OD of control (Porphyromonas gingivalis [5]; 5 μmol/ml): 0.8702; extent of growth: maximal OD630 over 48 hr divided by maximal OD of control (Porphyromonas gingivalis [5]; 10 μmol/ml): 0.8266; extent of growth: maximal OD630 over 48 hr divided by maximal OD of control (Porphyromonas gingivalis [5]; 20 μmol/ml): 0.7021; extent of growth: maximal OD630 over 48 hr divided by maximal OD of control (Porphyromonas gingivalis [5]; 25 μmol/ml): 0.4276; extent of growth: maximal OD630 over 48 hr divided by maximal OD of control (Streptococcus gordonii [6]; 5 μmol/ml): 0.9757; extent of growth: maximal OD630 over 48 hr divided by maximal OD of control (Streptococcus gordonii [6]; 10 μmol/ml): 0.9528; extent of growth: maximal OD630 over 48 hr divided by maximal OD of control (Streptococcus gordonii [6]; 20 μmol/ml): 0.7735; extent of growth: maximal OD630 over 48 hr divided by maximal OD of control (Streptococcus gordonii [6]; 25 μmol/ml): 0.6853
